The OligoGym collection
Oligonucleotides are given in HELM: sugar(base)linkage, 5' to 3'; d 2'-deoxyribose, r ribose, m 2'-O-methylribose, p phosphate. ss, as = sense and antisense strand

target: UBE2D3; test: reporter assay of Huesken 2005; details: siRNA
Also: test concentration or dose not given here.

Compared with “RNA1{r(A)p.r(C)p.r(G)p.r(G)p.r(A)p.r(U)p.r(C)p.r(U)p.r(A)p.r(U)p.r(A)p.r(A)p.r(A)p.r(A)p.r(C)p.r(A)p.r(G)p.r(A)p.r(C)p.d(T)p.d(T)}|RNA2{r(G)p.r(U)p.r(C)p.r(U)p.r(G)p.r(U)p.r(U)p.r(U)p.r(U)p.r(A)p.r(U)p.r(A)p.r(G)p.r(A)p.r(U)p.r(C)p.r(C)p.r(G)p.r(U)p.d(G)p.d(C)}$$$RNA1{StrandType:ss}|RNA2{StrandType:as}$”, “RNA1{r(A)p.r(C)p.r(U)p.r(A)p.r(C)p.r(C)p.r(C)p.r(C)p.r(U)p.r(U)p.r(C)p.r(A)p.r(A)p.r(A)p.r(C)p.r(C)p.r(A)p.r(C)p.r(C)p.d(T)p.d(T)}|RNA2{r(G)p.r(G)p.r(U)p.r(G)p.r(G)p.r(U)p.r(U)p.r(U)p.r(G)p.r(A)p.r(A)p.r(G)p.r(G)p.r(G)p.r(G)p.r(U)p.r(A)p.r(G)p.r(U)p.d(C)p.d(T)}$$$RNA1{StrandType:ss}|RNA2{StrandType:as}$” is lower in normalised inhibition (eCFP-eYFP dual reporter): 68.3% for the first, 63.1% for the second.

Compared with “RNA1{r(A)p.r(G)p.r(C)p.r(A)p.r(C)p.r(A)p.r(A)p.r(U)p.r(G)p.r(U)p.r(U)p.r(C)p.r(U)p.r(G)p.r(C)p.r(A)p.r(G)p.r(G)p.r(U)p.d(T)p.d(T)}|RNA2{r(A)p.r(C)p.r(C)p.r(U)p.r(G)p.r(C)p.r(A)p.r(G)p.r(A)p.r(A)p.r(C)p.r(A)p.r(U)p.r(U)p.r(G)p.r(U)p.r(G)p.r(C)p.r(U)p.d(G)p.d(G)}$$$RNA1{StrandType:ss}|RNA2{StrandType:as}$”, “RNA1{r(A)p.r(G)p.r(C)p.r(A)p.r(U)p.r(U)p.r(U)p.r(G)p.r(U)p.r(C)p.r(U)p.r(C)p.r(G)p.r(A)p.r(U)p.r(A)p.r(U)p.r(U)p.r(C)p.d(T)p.d(T)}|RNA2{r(G)p.r(A)p.r(A)p.r(U)p.r(A)p.r(U)p.r(C)p.r(G)p.r(A)p.r(G)p.r(A)p.r(C)p.r(A)p.r(A)p.r(A)p.r(U)p.r(G)p.r(C)p.r(U)p.d(G)p.d(C)}$$$RNA1{StrandType:ss}|RNA2{StrandType:as}$” is lower in normalised inhibition (eCFP-eYFP dual reporter): 102% for the first, 79.2% for the second.

First: RNA1{r(A)p.r(G)p.r(G)p.r(U)p.r(U)p.r(G)p.r(C)p.r(A)p.r(U)p.r(U)p.r(U)p.r(A)p.r(C)p.r(A)p.r(A)p.r(C)p.r(A)p.r(A)p.r(G)p.d(T)p.d(T)}|RNA2{r(C)p.r(U)p.r(U)p.r(G)p.r(U)p.r(U)p.r(G)p.r(U)p.r(A)p.r(A)p.r(A)p.r(U)p.r(G)p.r(C)p.r(A)p.r(A)p.r(C)p.r(C)p.r(U)p.d(T)p.d(A)}$$$RNA1{StrandType:ss}|RNA2{StrandType:as}$
Second: RNA1{r(A)p.r(U)p.r(C)p.r(A)p.r(U)p.r(C)p.r(C)p.r(A)p.r(A)p.r(A)p.r(U)p.r(A)p.r(U)p.r(U)p.r(A)p.r(A)p.r(C)p.r(A)p.r(G)p.d(T)p.d(T)}|RNA2{r(C)p.r(U)p.r(G)p.r(U)p.r(U)p.r(A)p.r(A)p.r(U)p.r(A)p.r(U)p.r(U)p.r(U)p.r(G)p.r(G)p.r(A)p.r(U)p.r(G)p.r(A)p.r(U)p.d(A)p.d(A)}$$$RNA1{StrandType:ss}|RNA2{StrandType:as}$
The normalised inhibition (eCFP-eYFP dual reporter) of the first is higher: 86.6% for the first, 32% for the second.

Going from “RNA1{r(A)p.r(U)p.r(C)p.r(C)p.r(A)p.r(A)p.r(A)p.r(C)p.r(C)p.r(C)p.r(A)p.r(G)p.r(A)p.r(U)p.r(G)p.r(A)p.r(C)p.r(C)p.r(C)p.d(T)p.d(T)}|RNA2{r(G)p.r(G)p.r(G)p.r(U)p.r(C)p.r(A)p.r(U)p.r(C)p.r(U)p.r(G)p.r(G)p.r(G)p.r(U)p.r(U)p.r(U)p.r(G)p.r(G)p.r(A)p.r(U)p.d(C)p.d(A)}$$$RNA1{StrandType:ss}|RNA2{StrandType:as}$” to “RNA1{r(A)p.r(U)p.r(C)p.r(C)p.r(A)p.r(U)p.r(U)p.r(U)p.r(G)p.r(U)p.r(U)p.r(C)p.r(A)p.r(C)p.r(U)p.r(G)p.r(C)p.r(U)p.r(A)p.d(T)p.d(T)}|RNA2{r(U)p.r(A)p.r(G)p.r(C)p.r(A)p.r(G)p.r(U)p.r(G)p.r(A)p.r(A)p.r(C)p.r(A)p.r(A)p.r(A)p.r(U)p.r(G)p.r(G)p.r(A)p.r(U)p.d(A)p.d(A)}$$$RNA1{StrandType:ss}|RNA2{StrandType:as}$”, the normalised inhibition (eCFP-eYFP dual reporter) rises from 44.5% to 96.1%.

Going from “RNA1{r(A)p.r(U)p.r(G)p.r(U)p.r(U)p.r(U)p.r(C)p.r(A)p.r(U)p.r(U)p.r(G)p.r(G)p.r(C)p.r(A)p.r(A)p.r(G)p.r(C)p.r(C)p.r(A)p.d(T)p.d(T)}|RNA2{r(U)p.r(G)p.r(G)p.r(C)p.r(U)p.r(U)p.r(G)p.r(C)p.r(C)p.r(A)p.r(A)p.r(U)p.r(G)p.r(A)p.r(A)p.r(A)p.r(C)p.r(A)p.r(U)p.d(A)p.d(T)}$$$RNA1{StrandType:ss}|RNA2{StrandType:as}$” to “RNA1{r(A)p.r(U)p.r(U)p.r(A)p.r(A)p.r(C)p.r(A)p.r(G)p.r(U)p.r(A)p.r(A)p.r(U)p.r(G)p.r(G)p.r(C)p.r(A)p.r(G)p.r(C)p.r(A)p.d(T)p.d(T)}|RNA2{r(U)p.r(G)p.r(C)p.r(U)p.r(G)p.r(C)p.r(C)p.r(A)p.r(U)p.r(U)p.r(A)p.r(C)p.r(U)p.r(G)p.r(U)p.r(U)p.r(A)p.r(A)p.r(U)p.d(A)p.d(T)}$$$RNA1{StrandType:ss}|RNA2{StrandType:as}$”, the normalised inhibition (eCFP-eYFP dual reporter) falls from 90.7% to 57.6%.

Compared with “RNA1{r(A)p.r(U)p.r(U)p.r(A)p.r(U)p.r(G)p.r(G)p.r(G)p.r(A)p.r(C)p.r(C)p.r(U)p.r(A)p.r(A)p.r(U)p.r(G)p.r(A)p.r(C)p.r(A)p.d(T)p.d(T)}|RNA2{r(U)p.r(G)p.r(U)p.r(C)p.r(A)p.r(U)p.r(U)p.r(A)p.r(G)p.r(G)p.r(U)p.r(C)p.r(C)p.r(C)p.r(A)p.r(U)p.r(A)p.r(A)p.r(U)p.d(T)p.d(G)}$$$RNA1{StrandType:ss}|RNA2{StrandType:as}$”, “RNA1{r(A)p.r(U)p.r(U)p.r(U)p.r(A)p.r(C)p.r(A)p.r(A)p.r(C)p.r(A)p.r(A)p.r(G)p.r(A)p.r(A)p.r(U)p.r(U)p.r(U)p.r(A)p.r(U)p.d(T)p.d(T)}|RNA2{r(A)p.r(U)p.r(A)p.r(A)p.r(A)p.r(U)p.r(U)p.r(C)p.r(U)p.r(U)p.r(G)p.r(U)p.r(U)p.r(G)p.r(U)p.r(A)p.r(A)p.r(A)p.r(U)p.d(G)p.d(C)}$$$RNA1{StrandType:ss}|RNA2{StrandType:as}$” is higher in normalised inhibition (eCFP-eYFP dual reporter): 64.1% for the first, 74.4% for the second.

First: RNA1{r(A)p.r(U)p.r(U)p.r(U)p.r(A)p.r(U)p.r(C)p.r(A)p.r(U)p.r(C)p.r(C)p.r(A)p.r(A)p.r(A)p.r(U)p.r(A)p.r(U)p.r(U)p.r(A)p.d(T)p.d(T)}|RNA2{r(U)p.r(A)p.r(A)p.r(U)p.r(A)p.r(U)p.r(U)p.r(U)p.r(G)p.r(G)p.r(A)p.r(U)p.r(G)p.r(A)p.r(U)p.r(A)p.r(A)p.r(A)p.r(U)p.d(T)p.d(C)}$$$RNA1{StrandType:ss}|RNA2{StrandType:as}$
Second: RNA1{r(C)p.r(A)p.r(A)p.r(G)p.r(A)p.r(A)p.r(U)p.r(U)p.r(U)p.r(A)p.r(U)p.r(C)p.r(A)p.r(U)p.r(C)p.r(C)p.r(A)p.r(A)p.r(A)p.d(T)p.d(T)}|RNA2{r(U)p.r(U)p.r(U)p.r(G)p.r(G)p.r(A)p.r(U)p.r(G)p.r(A)p.r(U)p.r(A)p.r(A)p.r(A)p.r(U)p.r(U)p.r(C)p.r(U)p.r(U)p.r(G)p.d(T)p.d(T)}$$$RNA1{StrandType:ss}|RNA2{StrandType:as}$
The normalised inhibition (eCFP-eYFP dual reporter) of the first is lower: 76.2% for the first, 93.1% for the second.

Compared with “RNA1{r(C)p.r(A)p.r(A)p.r(G)p.r(C)p.r(C)p.r(A)p.r(C)p.r(A)p.r(A)p.r(U)p.r(U)p.r(A)p.r(U)p.r(G)p.r(G)p.r(G)p.r(A)p.r(C)p.d(T)p.d(T)}|RNA2{r(G)p.r(U)p.r(C)p.r(C)p.r(C)p.r(A)p.r(U)p.r(A)p.r(A)p.r(U)p.r(U)p.r(G)p.r(U)p.r(G)p.r(G)p.r(C)p.r(U)p.r(U)p.r(G)p.d(C)p.d(C)}$$$RNA1{StrandType:ss}|RNA2{StrandType:as}$”, “RNA1{r(C)p.r(A)p.r(A)p.r(G)p.r(G)p.r(C)p.r(G)p.r(G)p.r(U)p.r(G)p.r(U)p.r(A)p.r(U)p.r(U)p.r(C)p.r(U)p.r(U)p.r(U)p.r(U)p.d(T)p.d(T)}|RNA2{r(A)p.r(A)p.r(A)p.r(A)p.r(G)p.r(A)p.r(A)p.r(U)p.r(A)p.r(C)p.r(A)p.r(C)p.r(C)p.r(G)p.r(C)p.r(C)p.r(U)p.r(U)p.r(G)p.d(A)p.d(T)}$$$RNA1{StrandType:ss}|RNA2{StrandType:as}$” is higher in normalised inhibition (eCFP-eYFP dual reporter): 35.2% for the first, 104% for the second.

First: RNA1{r(C)p.r(A)p.r(A)p.r(U)p.r(U)p.r(U)p.r(C)p.r(U)p.r(A)p.r(A)p.r(A)p.r(G)p.r(U)p.r(U)p.r(C)p.r(U)p.r(U)p.r(U)p.r(U)p.d(T)p.d(T)}|RNA2{r(A)p.r(A)p.r(A)p.r(A)p.r(G)p.r(A)p.r(A)p.r(C)p.r(U)p.r(U)p.r(U)p.r(A)p.r(G)p.r(A)p.r(A)p.r(A)p.r(U)p.r(U)p.r(G)p.d(T)p.d(T)}$$$RNA1{StrandType:ss}|RNA2{StrandType:as}$
Second: RNA1{r(C)p.r(A)p.r(G)p.r(C)p.r(A)p.r(C)p.r(A)p.r(A)p.r(U)p.r(G)p.r(U)p.r(U)p.r(C)p.r(U)p.r(G)p.r(C)p.r(A)p.r(G)p.r(G)p.d(T)p.d(T)}|RNA2{r(C)p.r(C)p.r(U)p.r(G)p.r(C)p.r(A)p.r(G)p.r(A)p.r(A)p.r(C)p.r(A)p.r(U)p.r(U)p.r(G)p.r(U)p.r(G)p.r(C)p.r(U)p.r(G)p.d(G)p.d(A)}$$$RNA1{StrandType:ss}|RNA2{StrandType:as}$
The normalised inhibition (eCFP-eYFP dual reporter) of the first is lower: 80.6% for the first, 87.8% for the second.

First: RNA1{r(C)p.r(A)p.r(G)p.r(C)p.r(A)p.r(U)p.r(U)p.r(U)p.r(G)p.r(U)p.r(C)p.r(U)p.r(C)p.r(G)p.r(A)p.r(U)p.r(A)p.r(U)p.r(U)p.d(T)p.d(T)}|RNA2{r(A)p.r(A)p.r(U)p.r(A)p.r(U)p.r(C)p.r(G)p.r(A)p.r(G)p.r(A)p.r(C)p.r(A)p.r(A)p.r(A)p.r(U)p.r(G)p.r(C)p.r(U)p.r(G)p.d(C)p.d(C)}$$$RNA1{StrandType:ss}|RNA2{StrandType:as}$
Second: RNA1{r(C)p.r(A)p.r(G)p.r(U)p.r(A)p.r(A)p.r(U)p.r(G)p.r(G)p.r(C)p.r(A)p.r(G)p.r(C)p.r(A)p.r(U)p.r(U)p.r(U)p.r(G)p.r(U)p.d(T)p.d(T)}|RNA2{r(A)p.r(C)p.r(A)p.r(A)p.r(A)p.r(U)p.r(G)p.r(C)p.r(U)p.r(G)p.r(C)p.r(C)p.r(A)p.r(U)p.r(U)p.r(A)p.r(C)p.r(U)p.r(G)p.d(T)p.d(T)}$$$RNA1{StrandType:ss}|RNA2{StrandType:as}$
The normalised inhibition (eCFP-eYFP dual reporter) of the first is lower: 95.2% for the first, 97.4% for the second.
